Patent EP2022493A1, “Composition comprising at least one optically active phthalamide derivative for controlling animal parasites” (Bayer CropScience AG, priority 2007, dated 2009)

How the values were obtained:
Musca domestica = Musca domestica - test; format: in vivo; details: application rate of 100ppm, adults
Method: (§1) Solvent: dimethyl sulfoxide
(§2) To produce a suitable preparation of active compound, 10 mg of active compound are dissolved in 0.5 ml solvent, and the concentrate is diluted with water to the desired concentration.
Prior to the assay, a piece or kitchen sponge is soaked with a mixture of sugar and compound solution and placed into a container. 10 adults (Musca domestica) are placed into the container and closed with a perforated lid.
After the specified period of time, mortality in % is determined. 100 % means that all the flies have been killed; 0 % means that none of the flies have been killed.

Lucilia cuprina larvae = experiment: Lucilia cuprina - test (larvae); format: in vivo; details: in Ovis aries, read-out: activity (mortality in %)
Method: as §1, §2
Approximately 20 -30 (Lucilia cuprina larvae) are transferred into a test tube containing 1cm^3 of minced horse meat and 0.5 ml aqueous dilution of test compound.
After the specified period of time, mortality in % is determined. 100 % means that all the larvae have been killed; 0 % means that none of the larvae have been killed.

Boophilus microplus = Boophilus microplus - test (injection into adult ticks); format: in vivo; details: application rate of 20 µg/animal; injected into the abdomen of adult ticks; seven days
Method: Boophilus microplus - test Solvent: dimethylsulfoxide To produce a suitable preparation of active compound, 1 part by weight of active compound is mixed with the stated amount of solvent, and the concentrate is diluted with containing solvent to the desired concentration. Adult ticks (Boophilus microplus) are treated by injected with compound solution of the desired concentration into the abdomen. Ticks are transferred into replica plates and incubated in a climate chamber for seven days. Eggs which are not clearly fertile or infertile are further incubated for another 35 days until larvae hatch from the untreated controls. After the specified period of time, the laying of fertile eggs in % is determined. 100 % means that all eggs have been fertile; 0 % means that none of the eggs have been fertile.

[1] = Determination of the logP values by HPLC on reversed-phase column (C 18); format: physicochemical
Method: Determination of the logP values:
The lambda max values were determined in the maxima of the chromatographic signals using the UV spectra from 190 nm to 400 nm.

[2] = 0.1% aqueous phosphoric acid/acetonitrile, method [a]: 0.1% aqueous phosphoric acid and acetonitrile at pH 2.3, linear gradient from 10 to 95 % (v/v) acetonitrile, HPLC reversed-phase C 18, 40 °C
[3] = 0.001 m aqueous nh4hco3/acetonitrile, method [c]: 0.001 molar aqueous NH4HCO3 solution and acetonitrile at pH 7.8, linear gradient from 10 % to 95 % acetonitrile (v/v), HPLC reversed-phase C 18, 40 °C
[4] = 0.001 m aqueous nh4hco3/acetonitrile, HPLC, reversed-phase C 18, 40 °C, [c] 0.001 molar aqueous NH4HCO3 solution and acetonitrile at pH 7.8, linear gradient from 10 % to 95 % acetonitrile (v/v)
[5] = 0.1% aqueous phosphoric acid/acetonitrile, HPLC, reversed-phase C 18, 40 °C, [a] 0.1% aqueous phosphoric acid and acetonitrile at pH 2.3, linear gradient from 10 to 95 % (v/v) acetonitrile

SMILES | mortality at 100 ppm (Musca domestica) [%] | mortality at 100 ppm (Lucilia cuprina larvae) [%] | activity (laying of fertile eggs in %) (Boophilus microplus) [%] | chromatographic logP [1, 2] | chromatographic logP [1, 3] | chromatographic logP [1, 4] | chromatographic logP [1, 5] | chromatographic logP ([1]; 0.1% aqueous formic acid/acetonitrile, HPLC, reversed-phase C 18, 40 °C, [b] 0.1% aqueous formic acid and acetonitrile at pH 2.7, linear gradient from 10 % to 95 % (v/v) acetonitrile)
CCS(=O)(=O)C[C@H](C)NC(=O)c1c(I)cccc1C(=O)Nc1ccc(C(C(F)(F)F)C(F)(F)F)cc1C [Compound 23] | ≥ 80 | ≥ 80 | – | – | – | – | – | –
CSC[C@H](C)NC(=O)c1c(I)cccc1C(=O)Nc1ccc(C(C(F)(F)F)C(F)(F)F)cc1C [Compound 24] | ≥ 80 | ≥ 80 | ≥ 80 | – | – | – | – | –
Cc1cc(C(C(F)(F)F)C(F)(F)F)ccc1NC(=O)c1cccc(I)c1C(=O)N[C@@H](C)CS(C)(=O)=O [Compound 48] | ≥ 80 | ≥ 80 | ≥ 80 | – | – | – | – | –
Cc1cc(C(C(F)(F)F)C(F)(F)F)ccc1NC(=O)c1cccc(I)c1C(=O)N[C@@H](C)C[S+](C)[O-] (stereo partly shown) [Compound 56] | ≥ 80 | ≥ 80 | ≥ 80 | – | – | – | – | –
Cc1cc(C(F)(C(F)(F)F)C(F)(F)F)ccc1NC(=O)c1cccc(Cl)c1C(=O)N[C@@H](C)CS(C)(=O)=O [Compound 80] | ≥ 80 | ≥ 80 | ≥ 80 | – | – | – | – | –
CCSC[C@H](C)NC(=O)c1c(I)cccc1C(=O)Nc1ccc(C(F)(C(F)(F)F)C(F)(F)F)c(F)c1C [Compound 105] | – | ≥ 80 | ≥ 80 | 4.71 | – | – | – | –
Cc1cc(C(F)(C(F)(F)F)C(F)(F)F)ccc1NC(=O)c1cccc(Br)c1C(=O)N[C@@H](C)CS(C)(=O)=O [Compound 129] | – | ≥ 80 | ≥ 80 | – | – | – | – | –
CCS(=O)(=O)C[C@H](C)NC(=O)c1c(I)cccc1C(=O)Nc1ccc(C(F)(C(F)(F)F)C(F)(F)F)c(F)c1C [Compound 130] | ≥ 80 | ≥ 80 | – | 3.47 | – | – | – | –
CCS(=O)(=O)C[C@H](C)NC(=O)c1c(Br)cccc1C(=O)Nc1ccc(C(F)(F)C(F)(F)F)c(Cl)c1C [Compound 138] | – | ≥ 80 | ≥ 80 | 3.19 | – | – | – | –
CCS(=O)(=O)C[C@H](C)NC(=O)c1c(I)cccc1C(=O)Nc1ccc(C(F)(F)C(F)(F)F)c(Cl)c1C [Compound 145] | – | ≥ 80 | – | – | – | – | – | –
CSC[C@H](C)NC(=O)c1c(I)cccc1C(=O)Nc1ccc(C(F)(F)C(F)(F)F)c(F)c1C [Compound 146] | – | ≥ 80 | ≥ 80 | 4.04 | – | – | – | –
CCSC[C@H](C)NC(=O)c1c(I)cccc1C(=O)Nc1ccc(C(F)(C(F)(F)F)C(F)(F)Br)cc1C (stereo partly shown) [Compound 154] | – | ≥ 80 | ≥ 80 | 4.68 | 4.71 | – | – | –
Cc1c(NC(=O)c2cccc(I)c2C(=O)N[C@@H](C)CS(C)(=O)=O)ccc(C(F)(F)C(F)(F)F)c1F [Compound 162] | ≥ 80 | ≥ 80 | – | 2.97 | – | – | – | –
CSC[C@H](C)NC(=O)c1c(I)cccc1C(=O)Nc1ccc(C(F)(F)C(F)(F)F)c(Cl)c1C [Compound 170] | – | ≥ 80 | ≥ 80 | 4.2 | – | – | – | –
Cc1c(NC(=O)c2cccc(I)c2C(=O)N[C@@H](C)CS(C)(=O)=O)ccc(C(F)(C(F)(F)F)C(F)(F)F)c1F [Compound 178] | ≥ 80 | ≥ 80 | – | 3.27 | – | – | – | –
Cc1c(NC(=O)c2cccc(I)c2C(=O)N[C@@H](C)CS(C)(=O)=O)ccc(C(F)(F)C(F)(F)F)c1Cl [Compound 186] | – | ≥ 80 | – | – | – | – | – | –

SMILES | mortality at 100 ppm (Musca domestica) [%] | mortality at 100 ppm (Lucilia cuprina larvae) [%] | activity (laying of fertile eggs in %) (Boophilus microplus) [%] | chromatographic logP [1, 2] | chromatographic logP [1, 3] | chromatographic logP [1, 4] | chromatographic logP [1, 5] | chromatographic logP ([1]; 0.1% aqueous formic acid/acetonitrile, HPLC, reversed-phase C 18, 40 °C, [b] 0.1% aqueous formic acid and acetonitrile at pH 2.7, linear gradient from 10 % to 95 % (v/v) acetonitrile)
CCS(=O)(=O)C[C@H](C)NC(=O)c1c(I)cccc1C(=O)Nc1ccc(C(F)(C(F)(F)F)C(F)(F)Br)cc1C (stereo partly shown) [Compound 194] | – | – | – | – | – | 3.47 | 3.49 | –
CCSC[C@H](C)NC(=O)c1c(I)cccc1C(=O)Nc1ccc(C(C(F)F)C(F)(F)F)cc1F (stereo partly shown) [Compound 219] | ≥ 80 | – | ≥ 80 | – | – | 3.57 | 3.57 | –
C[C@@H](CS(C)(=O)=O)NC(=O)c1c(I)cccc1C(=O)Nc1ccc(C(C(F)F)C(F)(F)F)cc1Cl (stereo partly shown) [Compound 259] | ≥ 80 | ≥ 80 | – | – | – | 2.72 | 2.69 | –
CSC[C@H](C)NC(=O)c1c(Br)cccc1C(=O)Nc1ccc(C(F)(C(F)F)C(F)(F)F)cc1Br (stereo partly shown) [Compound 267] | – | ≥ 80 | ≥ 80 | – | – | – | 3.81 | –
C[C@@H](CS(C)(=O)=O)NC(=O)c1c(I)cccc1C(=O)Nc1ccc(C(C(F)F)C(F)(F)F)cc1Br (stereo partly shown) [Compound 275] | ≥ 80 | ≥ 80 | – | – | – | 2.76 | 2.71 | –
C[C@@H](CS(C)(=O)=O)NC(=O)c1c(I)cccc1C(=O)Nc1ccc(C(F)(C(F)F)C(F)(F)F)cc1F (stereo partly shown) [Compound 283] | ≥ 80 | ≥ 80 | – | – | – | 2.76 | 2.72 | –
CCS(=O)(=O)C[C@H](C)NC(=O)c1c(I)cccc1C(=O)Nc1ccc(C(F)(C(F)F)C(F)(F)F)cc1F (stereo partly shown) [Compound 307] | ≥ 80 | ≥ 80 | – | – | – | 2.94 | 2.89 | –
Cc1c(NC(=O)c2cccc(I)c2C(=O)N[C@@H](C)C[S+](C)[O-])ccc(C(F)(C(F)(F)F)C(F)(F)F)c1F (stereo partly shown) [Compound 331] | – | ≥ 80 | ≥ 80 | – | – | – | 2.78 | –
CC[S+]([O-])C[C@H](C)NC(=O)c1c(I)cccc1C(=O)Nc1ccc(C(F)(C(F)(F)F)C(F)(F)F)c(F)c1C (stereo partly shown) [Compound 339] | – | ≥ 80 | ≥ 80 | – | – | – | 2.97 | –
CCS(=O)(=O)C[C@H](C)NC(=O)c1c(Cl)cccc1C(=O)Nc1ccc(C(F)(F)C(F)(F)F)c(Cl)c1C [Compound 347] | – | ≥ 80 | ≥ 80 | – | – | – | 3.14 | –
CSC[C@H](C)NC(=O)c1c(Cl)cccc1C(=O)Nc1ccc(C(F)(F)C(F)(F)F)c(F)c1C [Compound 355] | – | ≥ 80 | ≥ 80 | – | – | – | – | 3.94
CCSC[C@H](C)NC(=O)c1c(Cl)cccc1C(=O)Nc1ccc(C(F)(F)C(F)(F)F)c(F)c1C [Compound 380] | – | – | – | 4.21 | – | – | – | –
CSC[C@H](C)NC(=O)c1c(Br)cccc1C(=O)Nc1ccc(C(F)(F)C(F)(F)F)c(F)c1C [Compound 388] | – | ≥ 80 | ≥ 80 | 3.93 | – | – | – | –
Cc1c(NC(=O)c2cccc(Br)c2C(=O)N[C@@H](C)CS(C)(=O)=O)ccc(C(F)(F)C(F)(F)F)c1F [Compound 389] | – | ≥ 80 | ≥ 80 | 2.86 | – | – | – | –
CSC[C@H](C)NC(=O)c1c(Cl)cccc1C(=O)Nc1ccc(C(F)(C(F)(F)F)C(F)(F)F)cc1C [Compound 390] | ≥ 80 | ≥ 80 | ≥ 80 | – | – | – | – | –
Cc1cc(C(C(F)(F)F)C(F)(F)F)c(F)cc1NC(=O)c1cccc(Br)c1C(=O)N[C@@H](C)C[S+](C)[O-] (stereo partly shown) [Compound 422] | – | ≥ 80 | ≥ 80 | 2.58 | 2.51 | – | – | –
